According to patent US9204640B2, “2-acyloxy-pyrrolin-4-ones” (BAYER INTELLECTUAL PROPERTY GMBH, priority 2011, dated 2015):

Assays:
Format in all cases: in vivo
Myzus persicae = experiment: Myzus test (MYZUPE spray treatment); conditions: application rate 500 g/ha, after 5 days, Chinese cabbage leaf discs
How it was run: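 Chinese cabbage leaf discs carrying all stages of green peach aphid sprayed with compound diluted in emulsifier-containing water to the desired concentration. Mortality scored as % after 5 days, where 100% means all aphids dead and 0% none.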

Tetranychus urticae = experiment: Tetranychus test (TETRUR spray treatment; OP-resistant in Example 10)
Description: Tetranychus Test (TETRUR Spray Treatment)
To produce a suitable preparation of active compound, 1 part by weight of active compound is mixed with the stated amount of solvent and emulsifier, and the concentrate is diluted with emulsifier-containing water to the desired concentration. Discs of bean leaves (Phaseolus vulgaris) which are infested by all stages of the greenhouse red spider mite (Tetranychus urticae) are sprayed with an active compound preparation of the desired concentration.
After 5 days, the effect in % is determined. 100% means that all of the spider mites have been killed; 0% means that none of the spider mites have been killed.
Tetranychus Test, OP-Resistant (TETRUR Spray Treatment)
To produce a suitable preparation of active compound, 1 part by weight of active compound is mixed with the stated amount of solvent and emulsifier, and the concentrate is diluted with emulsifier-containing water to the desired concentration.
Discs of bean leaves (Phaseolus vulgaris) which are infested by all stages of the greenhouse red spider mite (Tetranychus urticae) are sprayed with an active compound preparation of the desired concentration.
After the desired period of time, the activity in % is determined. 100% means that all of the spider mites have been killed; 0% means that none of the spider mites have been killed.

Spodoptera frugiperda = Spodoptera frugiperda test (SPODFR spray treatment)
Description: Spodoptera Frugiperda Test (SPODFR Spray Treatment) [table] To produce a suitable preparation of active compound, 1 part by weight of active compound is mixed with the stated amount of solvent and emulsifier, and the concentrate is diluted with emulsifier-containing water to the desired concentration. Discs of corn leaves (Zea mays) are sprayed with an active compound preparation of the desired concentration and, after drying, populated with caterpillars of the armyworm (Spodoptera frugiperda). After 7 days, the effect in % is determined. 100% means that all caterpillars have been killed; 0% means that none of the caterpillars have been killed. Spodoptera Frugiperda Test (SPODFR Spray Treatment) To produce a suitable preparation of active compound, 1 part by weight of active compound is mixed with the stated amount of solvent and emulsifier, and the concentrate is diluted with emulsifier-containing water to the desired concentration. Discs of corn leaves (Zea mays) are sprayed with an active compound preparation of the desired concentration and, after drying, populated with caterpillars of the armyworm (Spodoptera frugiperda). After the desired period of time, the activity in % is determined. 100% means that all caterpillars have been killed; 0% means that none of the caterpillars have been killed.

Liriomyza trifolii = Liriomyza trifolii spray test (LIRITR); conditions: 20 g/ha; 7dat
Description: Liriomyza Trifolii-Spray Test ([…]) To produce a suitable preparation of active compound, 1 part by weight of active compound is mixed with the stated amount of solvent and emulsifier, and the concentrate is diluted with emulsifier-containing water to the desired concentration. If the addition of ammonium salts or/and penetrants is required, these are in each case added in a concentration of 1000 ppm to the solution of the preparations. Discs of bean leaves (Phaseolus vulgaris) which are infested by all stages of the leaf-mining fly (Liriomyza trifolii) are sprayed with an active compound preparation of the desired concentration. After the desired period of time, the activity in % is determined. 100% means that all of the leaf-mining flies have been killed; 0% means that none of the leaf-mining flies have been killed.

Lucilia cuprina larvae = experiment: Lucilia cuprina test (LUCICU); conditions: 100 ppm, after 2 days
Description: Lucilia Cuprina Test (LUCICU) [table] To prepare an appropriate active compound formulation, 10 mg of active compound are mixed with 0.5 ml of dimethyl sulfoxide and the concentrate is diluted with water to the desired concentration. Vessels containing horse meat treated with the active compound preparation of the desired concentration are populated with about 20 Lucilia cuprina larvae. After 2 days, the kill in % is determined. 100% means that all of the larvae have been killed; 0% means that none of the larvae have been killed.

Phaedon cochleariae = experiment: Phaedon test (PHAECO spray treatment); conditions: application rate 500 g/ha, after 7 days, Chinese cabbage leaf discs
Description: Phaedon Test ([…] Spray Treatment) [table] To produce a suitable preparation of active compound, 1 part by weight of active compound is mixed with the stated amount of solvent and emulsifier, and the concentrate is diluted with emulsifier-containing water to the desired concentration. Discs of Chinese cabbage (Brassica pekinensis) are sprayed with an active compound preparation of the desired concentration and, after drying, populated with larvae of the mustard beetle (Phaedon cochleariae). After 7 days, the effect in % is determined 100% means that all beetle larvae have been killed; 0% means that none of the beetle larvae have been killed. Phaedon Test ([…] Spray Treatment) To produce a suitable preparation of active compound, 1 part by weight of active compound is mixed with the stated amount of solvent and emulsifier, and the concentrate is diluted with emulsifier-containing water to the desired concentration. Discs of Chinese cabbage (Brassica pekinensis) are sprayed with an active compound preparation of the desired concentration and, after drying, populated with larvae of the mustard beetle (Phaedon cochleariae). After the desired period of time, the activity in % is determined. 100% means that all beetle larvae have been killed; 0% means that none of the beetle larvae have been killed.

Boophilus microplus = Boophilus microplus test (BOOPMI injection); conditions: 20 μg/animal, after 7 days
Description: Boophilus Microplus Test (BOOPMI Injection) [table] To prepare an appropriate active compound formulation, 10 mg of active compound are mixed with 0.5 ml of solvent and the concentrate is diluted with solvent to the desired concentration. The solution of active compound is injected into the abdomen (Boophilus microplus), and the animals are transferred into dishes and kept in a climatized room. The activity is assessed by deposition of fertile eggs. After 7 days, the effect in % is determined. 100% means that none of the ticks has laid any fertile eggs.

Bemisia tabaci = Bemisia tabaci spray test (BEMITA); conditions: 20 g/ha; 7dat
Description: Bemisia Tabaci-Spray Test ([…]) To produce a suitable preparation of active compound, 1 part by weight of active compound is mixed with the stated amount of solvent and emulsifier, and the concentrate is diluted with emulsifier-containing water to the desired concentration. Discs of cotton leaves (Gossypium hirsutum) which are infested by all stages of the whitefly (Bemisia tabaci) are sprayed with an active compound preparation of the desired concentration. After the desired period of time, the activity in % is determined. 100% means that all the whiteflies have been killed; 0% means that none of the whiteflies have been killed.

## CCOC(=O)OC1=C(c2c(C)cc(C)cc2C)C(=O)C2(CCC(COC)CC2)N1 (stereo not shown) [I-b-3]
Myzus persicae
  effect in % (aphids killed): 90%
Tetranychus urticae; 20 g/ha, 5dat, OP-resistant
  % Activity TETRUR: 80%
Tetranychus urticae; application rate 100 g/ha, after 5 days, bean leaf discs
  effect in % (spider mites killed): 90%
Spodoptera frugiperda; 500 g/ha, 7dat
  % Activity SPODFR: 100%
Spodoptera frugiperda; application rate 500 g/ha, after 7 days, corn leaf discs
  effect in % (caterpillars killed): 100%
Liriomyza trifolii
  % Activity LIRITRI: 80%
Lucilia cuprina larvae
  kill in % (larvae): 90%
Phaedon cochleariae
  effect in % (beetle larvae killed): 100%
Boophilus microplus
  efficacy in % (deposition of fertile eggs): 100%
Bemisia tabaci
  % Activity BEMITA: 72%
